Data taken from the supplement of paper PMC11781733.
Counter-ions that a name gives are not always drawn.

Columns and labels:
Details in all cases: exposure time: 15 min to 3 h acute
Dugesia japonica [1] = test: corkscrew incidence (% planarians (vehicle-normalised)); higher = higher incidence or increase relative to vehicle control
Summary of the method: (§1)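 In sealed 48-well plates holding one D. japonica planarian per well in 200 μL, worms fasted 5–7 days were exposed to at least 5 concentrations and screened within 15 minutes–3 hours. Contraction, C-shape, corkscrew and hyperkinesis were scored manually by a blinded researcher, and crawled-out worms were dropped. For each shape or for any abnormal shape, incidence is given ×100 after normalisation to vehicle controls on the plate, with negatives at 0.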

Dugesia japonica [2] = test: pharynx extrusion incidence (% planarians (vehicle-normalised)); higher = higher incidence or increase relative to vehicle control
Summary of the method: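 Pharynx extrusion incidence in intact, fasted Dugesia japonica was scored blind and by hand as a body-shape category, then normalised to vehicle controls from the same plate. Each worm was held alone in a 48-well plate well containing 200 μL and tested 15 min to 3 h after exposure, with 0.5% DMSO or water as vehicle. Eight worms per concentration per plate were used in technical triplicate (n = 24). Negatives were set to 0, and worms that crawled out were excluded.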

Dugesia japonica [3] = test: anxiety (time in outer well region) vs vehicle (% change vs vehicle); higher = higher incidence or increase relative to vehicle control
Summary of the method: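 Sealed 48-well plates held one D. japonica planarian per well in 200 μL, with worms fasted 5–7 days beforehand and tested at at least 5 concentrations (n = 24 per concentration). Screening took place within 15 minutes–3 hours. Using object tracking in MATLAB or Python, time spent in the outer part of the well was recorded, and worms that crawled out were excluded. Responses were divided by, or reduced by, the plate vehicle median and multiplied by 100, and the median is reported.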

Dugesia japonica [4] = test: crawl-out incidence (% planarians); higher = higher incidence or increase relative to vehicle control
Procedure: (§2)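 Adult asexual Dugesia japonica planarians (1 per well, 48-well plate, n=24 over technical triplicates) were exposed acutely (15 min to 3 h) to each compound (0.5% DMSO or water vehicle) and screened on a robotic platform for crawl-out, stickiness, body shape, phototaxis, noxious-heat scrunching and locomotion endpoints. Binary endpoints are incidence rate x100. Continuous endpoints are the median response normalised to the plate vehicle median, as % change or difference. Negative incidences after vehicle subtraction were set to 0.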

Dugesia japonica [5] = test: total locomotor bursts minus vehicle (bursts difference vs vehicle); higher = higher incidence or increase relative to vehicle control
Summary of the method: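 Fasted Dugesia japonica planarians, one per well of a sealed 48-well plate in 200 μL solution, were tested 15 min–3 h after exposure to half- or quarter-log concentration series. The vehicle was 0.5% DMSO or water. Total locomotor bursts, an unstimulated behaviour, came from image-based object tracking, with technical triplicates totalling n = 24. Each planarian's value had the plate vehicle-control median subtracted, without ×100 scaling. The value is the median normalised response, and crawled-out worms were excluded.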

Dugesia japonica [6] = test: stickiness incidence (% planarians (vehicle-normalised)); higher = higher incidence or increase relative to vehicle control
Summary of the method: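 In the Stickiness assay, fasted Dugesia japonica planarians were each placed in one well of a sealed 48-well plate containing 200 μL of solution, with 0.5% DMSO or water as vehicle. Testing took place 15 min–3 h after exposure to half- or quarter-log concentration series. Stickiness was recorded as a binary endpoint, and its incidence was expressed relative to in-plate vehicle incidence after pooling technical triplicates and removing worms that crawled out. Negative values were set to 0 and all values were multiplied by 100.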

Dugesia japonica [7] = test: speed second 30 s blue light vs vehicle (% change vs vehicle); higher = higher incidence or increase relative to vehicle control
Summary of the method: (§3)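 Each value is the median percent change in crawling speed, with each worm normalised to the median of the vehicle worms on its plate. Intact, fasted Dugesia japonica were tracked automatically one per well in 48-well plates holding 200 μL, either in the dark or during blue-light periods. Testing ran from 15 min to 3 h after exposure, with 0.5% DMSO or water as vehicle. Eight worms per concentration per plate were run in technical triplicate (n = 24), and any worm that crawled out of the liquid was excluded.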

Dugesia japonica [8] = test: speed in dark vs vehicle (% change vs vehicle); higher = higher incidence or increase relative to vehicle control
Procedure: as §2, with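 “x100 normalised to in-plate vehicle controls.” for “x100.”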

Dugesia japonica [9] = test: loss of phototaxis incidence (% planarians (vehicle-normalised)); higher = higher incidence or increase relative to vehicle control
Summary of the method: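 Loss of phototaxis was scored as a yes/no endpoint in intact, fasted Dugesia japonica using automated object tracking. Each worm was held alone in a well of a 48-well plate in 200 μL and tested 15 min to 3 h after exposure in 0.5% DMSO or water vehicle. Eight worms per concentration per plate were run in technical triplicate (n = 24), and worms that crawled out were excluded. The incidence rate ×100 was normalised to in-plate vehicle controls, with negative values set to 0.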

Dugesia japonica [10] = test: loss of heat-induced scrunching incidence (% planarians (vehicle-normalised)); higher = higher incidence or increase relative to vehicle control
Summary of the method: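 D. japonica planarians (fasted 5–7 days), one per well in 200 μL in sealed 48-well plates, were exposed to at least 5 concentrations (n = 24 per concentration, technical triplicates). They were tested within 15 minutes–3 hours for scrunching in response to a noxious heat stimulus; worms that crawled out were excluded. The value is the incidence ×100 of worms without scrunching, normalised to in-plate vehicle controls, with negatives set to 0.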

Dugesia japonica [11] = test: resting fraction in dark vs vehicle (difference in fraction x100 vs vehicle); higher = higher incidence or increase relative to vehicle control
Summary of the method: (§4)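 Resting fraction in the dark or under blue light was measured by automated tracking of intact, fasted Dugesia japonica, one per well of a 48-well plate in 200 μL. Worms were tested 15 min to 3 h after exposure in 0.5% DMSO or water vehicle. Eight worms per concentration per plate were run in technical triplicate (n = 24). The plate's vehicle median was subtracted from each worm, the difference was multiplied by 100, and the median is reported; worms that crawled out were excluded.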

Dugesia japonica [12] = test: speed first 30 s blue light vs vehicle (% change vs vehicle); higher = higher incidence or increase relative to vehicle control
Summary of the method: as §3

Dugesia japonica [13] = test: contracted body shape incidence (% planarians (vehicle-normalised)); higher = higher incidence or increase relative to vehicle control
Summary of the method: as §1

Dugesia japonica [14] = test: C-shape incidence (% planarians (vehicle-normalised)); higher = higher incidence or increase relative to vehicle control
Summary of the method: as §1

Dugesia japonica [15] = test: hyperkinesis incidence (% planarians (vehicle-normalised)); higher = higher incidence or increase relative to vehicle control
Summary of the method: as §1

Dugesia japonica [16] = test: any abnormal body shape incidence (% planarians (vehicle-normalised)); higher = higher incidence or increase relative to vehicle control
Summary of the method: as §1

Dugesia japonica [17] = test: resting fraction in blue light vs vehicle (difference in fraction x100 vs vehicle); higher = higher incidence or increase relative to vehicle control
Summary of the method: as §4

Dugesia japonica [18] = test: noxious heat displacement strength vs vehicle (% change vs vehicle); higher = higher incidence or increase relative to vehicle control
Summary of the method: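 Intact, fasted Dugesia japonica were held one per well in 48-well plates containing 200 μL and tested 15 min to 3 h after exposure in 0.5% DMSO or water vehicle. The scrunching assay with automated object tracking gave displacement strength under noxious heat, reported as the median percent change after normalising each worm to its plate's vehicle median. Worms that crawled out were excluded.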

Dugesia japonica [19] = test: speed in dark vs vehicle (% change vs vehicle); higher = higher incidence or increase relative to vehicle control; remark: listed apart in the source
Summary of the method: as §3

Dugesia japonica [20] = test: crawl-out incidence (% planarians); higher = higher incidence or increase relative to vehicle control; remark: listed apart in the source

Compound	corkscrew incidence (Dugesia japonica [1])	pharynx extrusion incidence (Dugesia japonica [2])	anxiety (Dugesia japonica [3])	crawl-out incidence (Dugesia japonica [4])	total locomotor bursts minus vehicle (Dugesia japonica [5])	stickiness incidence (Dugesia japonica [6])	speed second 30 s blue light (Dugesia japonica [7])	speed in dark (Dugesia japonica [8])	loss of phototaxis incidence (Dugesia japonica [9])	loss of heat-induced scrunching incidence (Dugesia japonica [10])	resting fraction in dark (Dugesia japonica [11])	speed first 30 s blue light (Dugesia japonica [12])	contracted body shape incidence (Dugesia japonica [13])	C-shape incidence (Dugesia japonica [14])	hyperkinesis incidence (Dugesia japonica [15])	any abnormal body shape incidence (Dugesia japonica [16])	resting fraction in blue light (Dugesia japonica [17])	noxious heat displacement strength (Dugesia japonica [18])	speed in dark (Dugesia japonica [19])	crawl-out incidence (Dugesia japonica [20])
CN1CC(=O)N=C1NC(=O)Nc1cccc(Cl)c1 [fenobam] (56.2 µM)	0	0	9.05	0	-0.5	≤ 0	-8.21	-1.71	12.5	≤ 0	-0.17	-6.17	0	0	0	0	0	-21.7	–	–
CNCCC(Oc1ccc(C(F)(F)F)cc1)c1ccccc1 (configuration not stated) [fluoxetine hydrochloride] (1 µM)	0	0	6.17	0	-7	4.17	14.9	33.6	≤ 0	8.33	-9.67	33.5	0	0	0	0	-1.64	12	–	–
O=C(CCCN1CC=C(n2c(=O)[nH]c3ccccc32)CC1)c1ccc(F)cc1 [droperidol] (1 µM)	4.17	0	11.5	0	11.8	≤ 0	-69.5	-60.7	16.7	58.3	3.77	-63.6	0	0	12.5	16.7	9.81	-54.4	–	–
CN(C)CCC[C@@]1(c2ccc(F)cc2)OCc2cc(C#N)ccc21 [escitalopram] (10 µM)	0	0	1.04	0	0.5	16.7	16	22.6	≤ 0	8.33	-4.34	23.1	0	0	0	0	0	-2.51	–	–
CN1C(=O)CN=C(c2ccccc2)c2cc(Cl)ccc21 [diazepam] (1 µM)	0	0	2.23	0	-4.5	4.17	-4.48	23.3	8.33	12.5	-6.08	30.1	0	0	0	0	-0.17	-18.8	–	–
O=C(CCCN1CCC(O)(c2ccc(Cl)cc2)CC1)c1ccc(F)cc1 [haloperidol] (1 µM)	0	0	1.11	4.17	0	≤ 0	-36.1	-17.7	21.7	≤ 0	32.1	-26.1	4.35	0	0	4.35	10.1	-20.5	–	–
CC(NC(C)(C)C)C(=O)c1cccc(Cl)c1 (configuration not stated) [bupropion] (10 µM)	0	0	3.29	0	-6	≤ 0	0.8	-21.4	12.5	4.17	34.4	-36.3	0	0	0	0	12.6	-1.43	–	–
CNCC[C@H](Oc1cccc2ccccc12)c1cccs1 [s-duloxetine] (1 µM)	0	0	12.8	4.17	7	13	-13.5	13.6	17.4	13	-7.56	34.6	0	0	0	0	9.83	-35.3	–	–
O=C1CC2(CCCC2)CC(=O)N1CCCCN1CCN(c2ncccn2)CC1 [buspirone] (1 µM)	0	0	3.11	0	0.5	≤ 0	-19.1	11.8	16.7	≤ 0	-6.06	-6.54	0	4.17	8.33	12.5	4.28	-21.9	–	–
CCCCNc1c(C(=O)OCC)c(C)nc2c1cnn2CC [tracazolate hydrochloride] (3.16 µM)	0	0	-16.4	–	0.5	≤ 0	-5.52	–	8.33	≤ 0	0	-7.17	0	0	12.5	8.33	0.22	-6.19	-4.2	0
CNCCC(Oc1ccc(C(F)(F)F)cc1)c1ccccc1 (configuration not stated) [fluoxetine hydrochloride] (10 µM)	0	0	10.3	–	1	≤ 0	-39.7	–	≤ 0	8.7	-0.39	-37.3	0	0	0	0	-1.17	-40	-41.5	4.17
CC(NC(C)(C)C)C(=O)c1cccc(Cl)c1 (configuration not stated) [bupropion] (316 µM)	0	0	5.33	–	-7	29.2	-21.6	–	≤ 0	8.33	51.6	-72	0	0	4.17	0	25.2	-7.65	22.5	0
CN1CCN(C2=Nc3cc(Cl)ccc3Nc3ccccc32)CC1 [clozapine] (31.6 µM)	29.2	0	-27.4	–	-3	≤ 0	-91.3	–	54.2	66.7	77.6	-93.4	4.17	29.2	50	87.5	75.8	-34.2	-76.4	0
CN(C)CCCN1c2ccccc2CCc2ccccc21 [imipramine] (31.6 µM)	0	4.17	-4.58	–	15.2	34.8	-64.4	–	20.8	≤ 0	6.51	-68.6	12.5	0	33.3	45.8	6.1	-21.9	-64	0
